Experimental data published in ChEMBL document CHEMBL6087466, “The Potential of PARP Inhibitors as Antitumor Drugs and the Perspective of Molecular Design” (J Med Chem, 2025).

Columns and labels:
[1] = target: Poly [ADP-ribose] polymerase 1 (Homo sapiens, UniProt P09874); experiment: Inhibition of PARP1 (unknown origin)
SK-OV-3 = experiment: Antiproliferative activity against human SK-OV-3 cells assessed as reduction in cell growth by SRB assay; format: functional, cell-based

Poly [ADP-ribose] polymerase 1, sequence (P09874 whole entry): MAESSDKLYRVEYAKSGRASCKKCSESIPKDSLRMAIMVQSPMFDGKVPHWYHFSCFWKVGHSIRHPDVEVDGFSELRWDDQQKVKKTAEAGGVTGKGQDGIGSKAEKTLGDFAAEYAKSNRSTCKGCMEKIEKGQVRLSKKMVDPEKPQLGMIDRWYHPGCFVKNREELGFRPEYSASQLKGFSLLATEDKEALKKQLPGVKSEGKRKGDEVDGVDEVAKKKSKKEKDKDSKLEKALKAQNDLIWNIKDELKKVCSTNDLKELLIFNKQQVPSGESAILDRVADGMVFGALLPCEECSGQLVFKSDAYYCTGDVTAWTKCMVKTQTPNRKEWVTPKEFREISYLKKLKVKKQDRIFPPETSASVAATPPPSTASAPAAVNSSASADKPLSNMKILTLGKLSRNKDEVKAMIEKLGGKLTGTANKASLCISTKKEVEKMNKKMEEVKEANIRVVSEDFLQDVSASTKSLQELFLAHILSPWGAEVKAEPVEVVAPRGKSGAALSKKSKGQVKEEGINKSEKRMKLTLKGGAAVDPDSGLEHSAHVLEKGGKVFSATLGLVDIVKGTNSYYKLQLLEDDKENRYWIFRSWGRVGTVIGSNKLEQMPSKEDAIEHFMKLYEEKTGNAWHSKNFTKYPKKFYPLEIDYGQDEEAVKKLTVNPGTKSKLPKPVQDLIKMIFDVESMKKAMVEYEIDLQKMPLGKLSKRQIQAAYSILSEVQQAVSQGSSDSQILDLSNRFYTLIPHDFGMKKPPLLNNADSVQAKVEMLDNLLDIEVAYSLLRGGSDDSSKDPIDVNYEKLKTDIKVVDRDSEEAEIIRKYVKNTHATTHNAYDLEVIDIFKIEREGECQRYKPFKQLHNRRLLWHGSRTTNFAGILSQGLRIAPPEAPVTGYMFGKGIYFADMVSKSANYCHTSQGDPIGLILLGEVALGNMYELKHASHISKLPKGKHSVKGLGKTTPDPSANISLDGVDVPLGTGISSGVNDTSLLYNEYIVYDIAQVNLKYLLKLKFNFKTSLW

| IC50 [1] [nM] | IC50 (SK-OV-3) [nM] | Structure (SMILES) |
| --- | --- | --- |
| 93 |  | NC(=O)c1cccc2[nH]c(CCCCCCOc3cc(O)c4c(=O)cc(-c5ccccc5)oc4c3)nc12 |
| 1 |  | N#Cc1ccc(N2CCN([C@H]3C=C(c4cc5ncccc5c(=O)[nH]4)CC3)CC2)cc1 |
| 26 | 4980 | CCNC(=S)N/N=C/c1ccc(-c2nc3c(oc4ccccc43)c(=O)[nH]2)cc1 |
